Like-named read-outs stand apart in the source and are kept apart here.

The text below walks through data of publication doi:10.1101/2023.03.24.534094v2 (biorxiv, 2023).

Among the targets are CK1d (Homo sapiens, UniProt P48730); CDK2 (Homo sapiens, UniProt P24941); OSR1 (Homo sapiens, UniProt O95747).
Experiment in all cases: biochemical
The next assay has as its target T1, MER (Homo sapiens, UniProt Q12866).
T1 sequence (Q12866 1-999): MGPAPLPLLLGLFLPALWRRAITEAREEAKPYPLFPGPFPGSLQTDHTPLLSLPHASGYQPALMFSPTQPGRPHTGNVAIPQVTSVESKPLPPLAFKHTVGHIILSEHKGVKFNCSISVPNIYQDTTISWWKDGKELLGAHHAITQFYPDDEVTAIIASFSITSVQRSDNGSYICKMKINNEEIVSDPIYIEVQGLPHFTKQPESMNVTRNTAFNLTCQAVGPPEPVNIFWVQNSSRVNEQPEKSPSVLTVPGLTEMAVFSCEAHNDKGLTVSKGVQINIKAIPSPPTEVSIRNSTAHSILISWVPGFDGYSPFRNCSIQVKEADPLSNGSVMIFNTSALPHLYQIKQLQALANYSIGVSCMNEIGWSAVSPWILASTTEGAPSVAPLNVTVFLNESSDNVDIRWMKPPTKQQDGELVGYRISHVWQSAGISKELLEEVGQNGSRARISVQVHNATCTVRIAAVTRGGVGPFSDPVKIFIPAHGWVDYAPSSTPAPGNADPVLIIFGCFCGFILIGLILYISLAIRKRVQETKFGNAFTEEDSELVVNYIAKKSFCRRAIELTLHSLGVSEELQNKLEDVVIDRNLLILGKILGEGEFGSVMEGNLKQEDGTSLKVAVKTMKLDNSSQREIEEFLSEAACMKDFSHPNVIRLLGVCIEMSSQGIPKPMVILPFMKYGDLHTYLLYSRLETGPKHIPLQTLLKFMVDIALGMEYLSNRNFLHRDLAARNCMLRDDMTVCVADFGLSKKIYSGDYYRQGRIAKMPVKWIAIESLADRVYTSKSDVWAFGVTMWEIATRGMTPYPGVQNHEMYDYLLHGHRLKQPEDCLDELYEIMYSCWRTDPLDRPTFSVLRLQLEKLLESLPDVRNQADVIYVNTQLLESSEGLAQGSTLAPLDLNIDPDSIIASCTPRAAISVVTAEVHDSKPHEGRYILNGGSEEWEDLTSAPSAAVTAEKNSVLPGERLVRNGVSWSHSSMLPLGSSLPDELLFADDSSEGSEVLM

The target in the next assay is T2, TLK1 (Homo sapiens, UniProt Q9UKI8).
T2 sequence (Q9UKI8 1-766): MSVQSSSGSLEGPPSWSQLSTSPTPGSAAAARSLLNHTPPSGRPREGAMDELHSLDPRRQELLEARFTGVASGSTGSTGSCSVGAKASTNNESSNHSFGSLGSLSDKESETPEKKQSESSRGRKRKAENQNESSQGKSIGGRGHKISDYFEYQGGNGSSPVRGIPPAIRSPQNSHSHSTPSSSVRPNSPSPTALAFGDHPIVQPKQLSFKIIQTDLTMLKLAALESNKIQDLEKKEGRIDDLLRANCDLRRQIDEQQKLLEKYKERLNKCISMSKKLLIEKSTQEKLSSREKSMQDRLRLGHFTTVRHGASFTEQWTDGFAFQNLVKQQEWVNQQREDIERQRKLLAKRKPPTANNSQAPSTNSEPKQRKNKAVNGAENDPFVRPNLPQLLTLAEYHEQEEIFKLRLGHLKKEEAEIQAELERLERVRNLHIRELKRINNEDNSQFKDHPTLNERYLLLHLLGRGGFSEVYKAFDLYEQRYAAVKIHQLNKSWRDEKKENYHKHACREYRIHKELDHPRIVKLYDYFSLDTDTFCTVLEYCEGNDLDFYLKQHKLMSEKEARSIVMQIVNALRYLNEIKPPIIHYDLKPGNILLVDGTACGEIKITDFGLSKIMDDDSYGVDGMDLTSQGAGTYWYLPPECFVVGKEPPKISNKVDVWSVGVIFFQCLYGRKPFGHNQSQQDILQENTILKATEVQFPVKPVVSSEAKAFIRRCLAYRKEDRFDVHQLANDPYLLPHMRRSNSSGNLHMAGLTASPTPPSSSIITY

Sequence of OSR1 (O95747 whole entry): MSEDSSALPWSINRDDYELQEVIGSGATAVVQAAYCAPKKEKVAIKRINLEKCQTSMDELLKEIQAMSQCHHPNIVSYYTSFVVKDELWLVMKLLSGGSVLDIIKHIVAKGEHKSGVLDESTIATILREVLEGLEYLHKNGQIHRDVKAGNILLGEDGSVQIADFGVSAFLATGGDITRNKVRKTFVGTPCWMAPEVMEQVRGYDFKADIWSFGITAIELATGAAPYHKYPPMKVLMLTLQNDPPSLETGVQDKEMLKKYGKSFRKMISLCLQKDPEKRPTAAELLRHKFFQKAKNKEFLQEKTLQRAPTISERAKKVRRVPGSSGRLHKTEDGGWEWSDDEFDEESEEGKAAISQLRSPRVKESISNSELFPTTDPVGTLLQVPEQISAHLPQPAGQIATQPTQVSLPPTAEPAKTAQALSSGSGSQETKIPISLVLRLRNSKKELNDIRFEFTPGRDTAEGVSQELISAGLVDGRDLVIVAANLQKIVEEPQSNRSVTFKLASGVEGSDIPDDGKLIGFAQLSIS
Sequence of CK1d (P48730 whole entry): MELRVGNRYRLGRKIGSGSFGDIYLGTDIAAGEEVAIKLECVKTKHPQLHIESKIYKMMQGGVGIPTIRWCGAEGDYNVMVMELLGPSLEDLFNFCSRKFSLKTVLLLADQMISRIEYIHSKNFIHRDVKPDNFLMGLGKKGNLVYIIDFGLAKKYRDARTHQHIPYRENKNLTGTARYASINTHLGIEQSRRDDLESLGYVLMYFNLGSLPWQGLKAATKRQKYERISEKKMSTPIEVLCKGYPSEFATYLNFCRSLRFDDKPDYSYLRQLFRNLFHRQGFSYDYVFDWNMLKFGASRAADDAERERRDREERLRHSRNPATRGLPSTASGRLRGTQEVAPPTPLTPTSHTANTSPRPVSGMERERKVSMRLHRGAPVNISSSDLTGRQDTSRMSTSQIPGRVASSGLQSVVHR

For the compound `CNc1ncc2cc(-c3cc(Cl)ccc3Cl)c(=O)n(CCCCN)c2n1` [compound 8, 8-(4-Aminobutyl)-6-(2,5-dichlorophenyl)-2-(methylamino)pyrido[2,3-d]pyrimidin-7(8H)-one], the ΔTm at 10 µM on CK1d (read-out: dTm 8) came out at 0 °C; on CDK2 (read-out: dTm 8), 0.6 °C; on MER (read-out: dTm 8), 0.5 °C; at OSR1 (read-out: dTm 8) it was 0.3 °C; at TLK1 (read-out: dTm 8) it was 1 °C.

Take `CNc1ncc2cc(-c3cc(Br)ccc3Br)c(=O)n(CCCCN)c2n1` [compound 11, 8-(4-Aminobutyl)-6-(2,5-dibromophenyl)-2-(methylamino)pyrido[2,3-d]pyrimidin-7(8H)-one]: the ΔTm at 10 µM was 0 °C at CK1d (read-out: dTm 11); 0.7 °C on CDK2 (read-out: dTm 11); 0.6 °C on MER (read-out: dTm 11); 0.4 °C at OSR1 (read-out: dTm 11); 1 °C at TLK1 (read-out: dTm 11).

Regarding `CNc1ncc2cc(-c3cc(C(F)(F)F)ccc3Cl)c(=O)n(CCCCN)c2n1` [compound 9, 8-(4-Aminobutyl)-6-(2-chloro-5-(trifluoromethyl)phenyl)-2-(methylamino)pyrido[2,3-d]pyrimidin-7(8H)-one], the ΔTm at 10 µM was 0 °C at CK1d (read-out: dTm 9); 0.3 °C at CDK2 (read-out: dTm 9); 0.2 °C at MER (read-out: dTm 9); 0.3 °C on OSR1 (read-out: dTm 9); 0.7 °C at TLK1 (read-out: dTm 9).

As for `CNc1ncc2cc(-c3cc(F)c(-c4cccc(C)n4)cc3F)c(=O)n(CCCCN)c2n1` [compound 12, 8-(4-Aminobutyl)-6-(2,5-difluoro-4-(6-methylpyridin-2-yl)phenyl)-2-(methylamino)pyrido[2,3-d]pyrimidin-7(8H)-one], the ΔTm at 10 µM at CK1d (read-out: dTm 12) is 0.6 °C; at CDK2 (read-out: dTm 12), 1.1 °C; at MER (read-out: dTm 12), 1.1 °C; on OSR1 (read-out: dTm 12), -0.2 °C; at TLK1 (read-out: dTm 12), -1.5 °C.

`CNc1ncc2cc(-c3cc(Cl)ccc3Br)c(=O)n(CCCCN)c2n1` [compound 10, 8-(4-Aminobutyl)-6-(2-bromo-5-chlorophenyl)-2-(methylamino)pyrido[2,3-d]pyrimidin-7(8H)-one]: the ΔTm at 10 µM was 0 °C on CK1d (read-out: dTm 10); 0.6 °C at CDK2 (read-out: dTm 10); 0.7 °C on MER (read-out: dTm 10); -0.2 °C on OSR1 (read-out: dTm 10); 0.5 °C on TLK1 (read-out: dTm 10).
